In patent publication US11708348B2, “Protease inhibitors for treatment of coronavirus infections” (The Scripps Research Institute, priority 2021, dated 2023):

Test system: SARS-CoV-2 strain USA-WA1/2020
Assay: microbe, parasite or virus in culture
Assay type: cell-based
Details: Severe acute respiratory syndrome coronavirus 2, HeLa-ACE2, 24 h, HeLa-ACE2 cells, SARS-CoV-2 infection, 24 h; read-out: EC50, uM (Hela)

Work on CC(C)C[C@H](NC(=O)C(=O)NC12CC(C(F)(F)F)(C1)C2)C(=O)N[C@@H](C[C@@H]1CCNC1=O)C(=O)COC(F)(F)F [Compound 596, N1-((S)-4-methyl-1-oxo-1-(((S)-3-oxo-1-((S)-2-oxopyrrolidin-3-yl)-4-(trifluoromethoxy)butan-2-yl)amino)pentan-2-yl)-N2-(3-(trifluoromethyl)bi-cyclo[1.1.1]pentan-1-yl)oxalamide] yielded an EC50 of less than 0.05 µM.

For O=C(Nc1cccc(F)c1F)C(=O)N1CC2(CC2)C[C@H]1C(=O)N[C@@H](C[C@@H]1CCNC1=O)C(=O)COC(F)(F)F [Compound 598, (S)-5-(2-((2,3-difluorophenyl)amino)-2-oxoacetyl)-N-((S)-3-oxo-1-((S)-2-oxopyrrolidin-3-yl)-4-(trifluoromethoxy)butan-2-yl)-5-azaspiro[2.4]heptane-6-carboxamide], the EC50 was less than 0.05 µM.

For COc1cccc(NC(=O)C(=O)N2CC3(CC3)C[C@H]2C(=O)N[C@@H](C[C@@H]2CCNC2=O)C(=O)COC(F)(F)F)c1F [Compound 599, (S)-5-(2-((2-fluoro-3-methoxyphenyl)amino)-2-oxoacetyl)-N-((S)-3-oxo-1-((S)-2-oxopyrrolidin-3-yl)-4-(trifluoromethoxy)butan-2-yl)-5-azaspiro[2.4]heptane-6-carboxamide], the EC50 was less than 0.05 µM.

O=C(Nc1cccc(OC(F)(F)F)c1F)C(=O)N1CC2(CC2)C[C@H]1C(=O)N[C@@H](C[C@@H]1CCNC1=O)C(=O)COC(F)(F)F [Compound 600, (S)-5-(2-((2-fluoro-3-(trifluoromethoxy)-phenyl)amino)-2-oxoacetyl)-N-((S)-3-oxo-1-((S)-2-oxopyrrolidin-3-yl)-4-(trifluoromethoxy)-butan-2-yl)-5-azaspiro[2.4]heptane-6-carboxamide] gave an EC50 of less than 0.05 µM.

With CC(C)(C)NC(=O)C(=O)N1C[C@@H]2C(F)CC[C@@H]2[C@H]1C(=O)N[C@@H](C[C@@H]1CCNC1=O)C(=O)COC(F)(F)F (stereo partly drawn) [Compound 601, (1S,3aR,6aS)-2-(2-(tert-butylamino)-2-oxoacetyl)-4-fluoro-N-((S)-3-oxo-1-((S)-2-oxopyrrolidin-3-yl)-4-(trifluoromethoxy)butan-2-yl)octahydrocyclo-penta[c]pyrrole-1-carboxamide] the EC50 was 0.05 to 0.2 µM.

In the case of O=C(Nc1cc(F)ccc1F)C(=O)N1CC2(CC2)C[C@H]1C(=O)N[C@@H](C[C@@H]1CCNC1=O)C(=O)COC(F)(F)F [Compound 602, (S)-5-(2-((2,5-difluorophenyl)amino)-2-oxoacetyl)-N-((S)-3-oxo-1-((S)-2-oxopyrrolidin-3-yl)-4-(trifluoromethoxy)butan-2-yl)-5-azaspiro[2.4]heptane-6-carboxamide], the EC50 is reported as less than 0.05 µM.

O=C(Nc1c(F)cccc1Cl)C(=O)N1CC2(CC2)C[C@H]1C(=O)N[C@@H](C[C@@H]1CCNC1=O)C(=O)COC(F)(F)F [Compound 603, (S)-5-(2-((2-chloro-6-fluorophenyl)amino)-2-oxoacetyl)-N-((S)-3-oxo-1-((S)-2-oxo-pyrrolidin-3-yl)-4-(trifluoromethoxy)-butan-2-yl)-5-azaspiro[2.4]heptane-6-carboxamide] showed an EC50 of 0.05 to 0.2 µM.

O=C1NCC[C@H]1C[C@@H](NC(=O)[C@@H]1[C@H]2CCC[C@H]2CN1C(=O)c1cc2cc(F)ccc2[nH]1)C(=O)COC(F)(F)F [Compound 604, (1S,3aR,6aS)-2-(5-fluoro-1H-indole-2-carbonyl)-N-((R)-3-oxo-1-((S)-2-oxopyrrolidin-3-yl)-4-(trifluoromethoxy)butan-2-yl)octahydrocyclopenta[c]pyrrole-1-carboxamide] gave an EC50 of less than 0.05 µM.

COc1cccc2[nH]c(C(=O)N3CC4(CC4)C[C@H]3C(=O)N[C@@H](C[C@@H]3CCNC3=O)C(=O)COC(F)(F)F)cc12 [Compound 605, (S)-5-(4-methoxy-1H-indole-2-carbonyl)-N-((S)-3-oxo-1-((S)-2-oxopyrrolidin-3-yl)-4-(trifluorometh-oxy)butan-2-yl)-5-azaspiro[2.4]heptane-6-carboxamide] showed an EC50 of less than 0.05 µM.

For O=C(Nc1ccccc1Cl)C(=O)N1CC2(CC2)C[C@H]1C(=O)N[C@@H](C[C@@H]1CCNC1=O)C(=O)COC(F)(F)F [Compound 606, (S)-5-(2-((2-chlorophenyl)amino)-2-oxoacetyl)-N-((S)-3-oxo-1-((S)-2-oxopyrrolidin-3-yl)-4-(trifluoromethoxy)butan-2-yl)-5-azaspiro[2.4]heptane-6-carboxamide], the EC50 was less than 0.05 µM.

For O=C(Nc1cccc(Cl)c1)C(=O)N1CC2(CC2)C[C@H]1C(=O)N[C@@H](C[C@@H]1CCNC1=O)C(=O)COC(F)(F)F [Compound 607, (S)-5-(2-((3-chlorophenyl)amino)-2-oxoacetyl)-N-((S)-3-oxo-1-((S)-2-oxopyrrolidin-3-yl)-4-(trifluoromethoxy)butan-2-yl)-5-azaspiro[2.4]heptane-6-carboxamide], the EC50 was less than 0.05 µM.

COc1cccc2[nH]c(C(=O)N3C[C@@H]4CCC[C@@H]4[C@H]3C(=O)N[C@@H](C[C@@H]3CCNC3=O)C(=O)COC(F)(F)F)cc12 [Compound 608, (1S,3aR,6aS)-2-(4-methoxy-1H-indole-2-carbonyl)-N-((S)-3-oxo-1-((S)-2-oxopyrrolidin-3-yl)-4-(trifluoromethoxy)butan-2-yl)octahydrocyclopenta[c]pyrrole-1-carboxamide] showed an EC50 of less than 0.05 µM.

Compound O=C1NCC[C@H]1C[C@H](NC(=O)[C@@H]1[C@H]2CCC[C@H]2CN1C(=O)c1noc2cc(Cl)ccc12)C(=O)COC(F)(F)F [Compound 609, (1S,3aR,6aS)-2-(6-chlorobenzo[d]isoxazole-3-carbonyl)-N-((S)-3-oxo-1-((S)-2-oxopyrrolidin-3-yl)-4-(trifluoromethoxy)butan-2-yl)octahydrocyclopenta[c]pyrrole-1-carboxamide] has an EC50 of less than 0.05 µM.

With O=C(Nc1ccccc1OC(F)(F)F)C(=O)N1CC2(CC2)C[C@H]1C(=O)N[C@@H](C[C@@H]1CCNC1=O)C(=O)COC(F)(F)F [Compound 610, (S)-N-((S)-3-oxo-1-((S)-2-oxopyrrolidin-3-yl)-4-(trifluoromethoxy)butan-2-yl)-5-(2-oxo-2-((2-(trifluoromethoxy)phenyl)amino)acetyl)-5-azaspiro[2.4]heptane-6-carboxamide] the EC50 was less than 0.05 µM.

For O=C1NCC[C@H]1C[C@H](NC(=O)[C@@H]1[C@H]2CCC[C@H]2CN1C(=O)c1noc2cc(F)ccc12)C(=O)COC(F)(F)F [Compound 611, (1S,3aR,6aS)-2-(6-fluorobenzo[d]isoxazole-3-carbonyl)-N-((S)-3-oxo-1-((S)-2-oxopyrrolidin-3-yl)-4-(trifluoromethoxy)butan-2-yl)octahydrocyclopenta[c]pyrrole-1-carboxamide], the EC50 was less than 0.05 µM.

CC(C)(C)c1ccccc1NC(=O)C(=O)N1CC2(CC2)C[C@H]1C(=O)N[C@@H](C[C@@H]1CCNC1=O)C(=O)COC(F)(F)F [Compound 613, (S)-5-(2-((2-(tert-butyl)phenyl)amino)-2-oxoacetyl)-N-((S)-3-oxo-1-((S)-2-oxopyrrolidin-3-yl)-4-(trifluoromethoxy)butan-2-yl)-5-azaspiro[2.4]heptane-6-carboxamide] showed an EC50 of less than 0.05 µM.

O=C1NCC[C@H]1C[C@H](NC(=O)[C@@H]1[C@H]2CCC[C@H]2CN1C(=O)c1noc2ccc(F)cc12)C(=O)COC(F)(F)F [Compound 614, (1S,3aR,6aS)-2-(5-fluorobenzo[d]isoxazole-3-carbonyl)-N-((S)-3-oxo-1-((S)-2-oxopyrrolidin-3-yl)-4-(trifluoromethoxy)butan-2-yl)octahydrocyclopenta[c]pyrrole-1-carboxamide] gave an EC50 of less than 0.05 µM.

For CC(C)(C)c1ccccc1NC(=O)C(=O)N1C[C@@H]2CCC[C@@H]2[C@H]1C(=O)N[C@@H](C[C@@H]1CCNC1=O)C(=O)COC(F)(F)F [Compound 615, (1S,3aR,6aS)-2-(2-((2-(tert-butyl)phenyl)amino)-2-oxoacetyl)-N-((S)-3-oxo-1-((S)-2-oxopyrrolidin-3-yl)-4-(trifluoromethoxy)butan-2-yl)octahydrocyclopenta[c]pyrrole-1-carboxamide], the EC50 was less than 0.05 µM.

O=C1NCC[C@H]1C[C@H](NC(=O)[C@@H]1CC2(CC2)CN1C(=O)C(F)(F)c1ccccc1)C(=O)COC(F)(F)F [Compound 616, (S)-5-(2,2-difluoro-2-phenylacetyl)-N-((S)-3-oxo-1-((S)-2-oxopyrrolidin-3-yl)-4-(trifluoromethoxy)butan-2-yl)-5-azaspiro[2.4]heptane-6-carboxamide] gave an EC50 of less than 0.05 µM.

For CCCCC(=O)N1CC2(CC2)C[C@H]1C(=O)N[C@@H](C[C@@H]1CCNC1=O)C(=O)COC(F)(F)F [Compound 618, (S)-N-((S)-3-oxo-1-((S)-2-oxopyrrolidin-3-yl)-4-(trifluoromethoxy)butan-2-yl)-5-pentanoyl-5-azaspiro[2.4]heptane-6-carboxamide], the EC50 was 0.05 to 0.2 µM.

CC(C)(C(=O)N1CC2(CC2)C[C@H]1C(=O)N[C@@H](C[C@@H]1CCNC1=O)C(=O)COC(F)(F)F)c1ccccc1 [Compound 619, (S)-5-(2-methyl-2-phenylpropanoyl)-N-((S)-3-oxo-1-((S)-2-oxopyrrolidin-3-yl)-4-(trifluoromethoxy)butan-2-yl)-5-azaspiro[2.4]heptane-6-carboxamide] gave an EC50 of less than 0.05 µM.

CC(C)(C)[C@H](NC(=O)OCc1ccccc1)C(=O)N1C[C@H]2[C@@H]([C@H]1C(=O)N[C@@H](C[C@@H]1CCNC1=O)C(=O)COC(F)(F)F)C2(C)C [Compound 620, benzyl ((S)-1-((1R,2S,5S)-6,6-dimethyl-2-(((S)-3-oxo-1-((S)-2-oxopyrrolidin-3-yl)-4-(trifluoromethoxy)butan-2-yl)carbamoyl)-3-azabicyclo[3.1.0]hexan-3-yl)-3,3-dimethyl-1-oxobutan-2-yl)carbamate] gave an EC50 of less than 0.05 µM.

COC(C(=O)N1C[C@@H]2CCC[C@@H]2[C@H]1C(=O)N[C@@H](C[C@@H]1CCNC1=O)C(=O)COC(F)(F)F)c1cncc(Cl)n1 (stereo partly drawn) [Compound 621, (1S,3aR,6aS)-2-(2-(6-chloropyrazin-2-yl)-2-methoxyacetyl)-N-((S)-3-oxo-1-((S)-2-oxopyrrolidin-3-yl)-4-(trifluoromethoxy)butan-2-yl)octahydrocyclopenta[c]pyrrole-1-carboxamide] showed an EC50 of 0.05 to 0.2 µM.
